Here are results for 13 compounds from patent US9265808B2, “Compositions for alleviating inflammation and oxidative stress in a mammal” (priority 2004, dated 2016).

Data set [1] has as its system HO-1. Description: Protandim®-induced HO-1 protein in presence of signaling pathway inhibitors, SK-N-MC cells. Format: cell-based, human. The settings on record: for decrease of Protandim®-mediated increase in HO-1 expression in presence of inhibitor: 20 μM SB203580 or 1 μM rottlerin 30 min. The method, then:
To identify the signaling pathway(s) involved in HO-1 promoter induction by Protandim®, different pharmacological inhibitors that specifically block each of the following pathways were used: 5-(2-benzothiazolyl)-3-ethyl-2-[2-(methylphenylamino) ethenyl]-1-phenyl-1H-benzimidazolium iodide (Akt inhibitor IV) for Akt, LY294002 for PI3-kinase, SP600125 for JNK, U0126 for MEK/ERK, SB203580 for p38MAPK, and rottlerin for PKCδ. SK-N-MC cells were preincubated in the presence of 250 nM Akt inhibitor IV, 30 μM LY294002, 1 μM rottlerin, 10 μM U0126, 20 μM SB203580, or 20 μM SP600125 for 30 min followed by exposure to 20 μg/ml Protandim® for 24 h. Cell lysates were electrophoresed and immunoblotted for HO-1. The blots were then reprobed with the antibody for β-actin. […] The intensities of the bands were quantified by densitometry using Fluor-S MultiImager and Quantity One software from Bio-Rad. HO-1 levels were corrected for β-actin expression.

Data set [2] has as its system HO-1. Put plainly: HO-1 protein by Western blot in SK-N-MC cells. The data set is classed as cell-based, human. The settings on record: ethanolic extracts at maximum doses of Table 10 (Protandim® 20 μg/ml). For orientation: Immunoblotting shows a protein as a band on a membrane.
From the text: (§1) After treatment with Protandim® extracts, MIN6 and SK-N-MC cells were washed with ice-cold PBS. Cells were lysed with mammalian protein extraction reagent (Pierce, Rockford, Ill., USA) containing phosphatase inhibitors and protease inhibitor cocktail. […] Diluted samples containing equal amounts of protein were mixed with 2× Laemmli sample buffer and subjected to electrophoresis on 12% SDS-polyacrylamide gels. After transfer to polyvinylidene difluoride membranes, the membranes were blocked with TBST [20 mM Tris-HCl (pH 7.9), 8.5% NaCl, and 0.1% Tween 20] containing 5% nonfat dry milk at room temperature for 1 h and exposed to primary antibodies (1:1000) in TBST containing 5.0% BSA at 4° C. overnight. After being washed in blocking solution, the membranes were exposed to secondary antibodies conjugated to alkaline phosphatase and developed with CDP-Star reagent (New England Biolabs, Beverly, Mass., USA). The intensity of the protein bands was visualized using Fluor-S Multi-Imager and Quantity One software from Bio-Rad. […]
(§2) Cell lysates were processed for Western blot analysis of HO-1, and the blots reprobed for β-actin. The intensities of bands were quantitated by scanning in a MultiImager using Quantity One software (Bio-Rad), and HO-1 expression was corrected for β-actin levels.
Data set [3] relates to HO-1. Description: HO-1 protein by Western blot in MIN6 cells. Format: cell-based, mouse. The following applies: ethanolic extracts at maximum doses of Table 10 (Protandim® 40 μg/ml).
From the text: as §1, §2
Data set [4] deals with HO-1 promoter. Description: HO-1 promoter luciferase reporter assay in SK-N-MC cells. The data set is classed as cell-based, human. The following applies: concentration present in the maximum dose of Protandim® (20 μg/ml). In general terms: Reporter assays use an easily measured gene product as a stand-in for the process of interest.
Method: (§3) The induction of HO-1 by Protandim® was tested by transient transfection of its promoter linked to the luciferase reporter gene in MIN6 cells, a mouse insulinoma cell line, and in SK-N-MC cells, a human neuroblastoma cell line, as reported in Velmurugan, K. et al., “Synergistic induction of heme oxygenase-1 by the components of the antioxidant supplement Protandim,” Free Radical Biology & Medicine, 46: 430-440 (2009), the entire disclosure of which is incorporated herein by reference.
(§4) The alcohol extract of Protandim® was prepared by shaking 675 mg of Protandim with 16.875 ml of 95% ethanol overnight at 4° C. and centrifuging at 5000 rpm (4° C.) for 5 min, and the extract (40 mg/ml) was stored at −80° C. For studies on synergy, the individual components present in 675 mg of Protandim® were extracted in the same volume of alcohol by a similar procedure. Parallel preparations of Protandim® extracts were also prepared with one of the components omitted. […] Controls were treated with the same volume of alcohol used in the treated groups. […]
(§5) After freezing and thawing, the lysates were centrifuged (10,600 g; 20 min) to collect the supernatant. Firefly luciferase and Renilla luciferase activities from transfected cells were measured using the Dual-Glo Luciferase Assay System (Promega). […]
The subject of data set [5] is HO-1 promoter. Put plainly: HO-1 promoter luciferase reporter assay in MIN6 cells. Format: cell-based, mouse. The following applies: concentration present in the maximum dose of Protandim® (40 μg/ml).
Method: as §3, §4, §5
Data set [6] has as its system Nrf2. Description: AREc32 bioassay for Nrf2 activation. The source says:
The assay for Nrf2 activation is based on the AREc32 cell line, developed by Dr. C. R. Wolf and colleagues of the University of Dundee, Scotland, as described in Wang, X. J. et al., “Generation of a stable antioxidant response element-driven reporter gene cell line and its use to show redoxdependent activation of Nrf2 by cancer chemotherapeutic agents,” Cancer Res. 66, 10983-10994 (2006); Hybertson, B. M. et al., “Oxidative stress in health and disease: the therapeutic potential of Nrf2 activation,” Molecular Aspects of Medicine, 32: 234-246 (2011), the entire disclosure of each of which is incorporated herein by reference. The AREc32 cell line is a stable transfectant derived from the MCF7 human breast cancer cell line. It contains a promoter with eight copies of the rat glutathione-S-transferase-A2 Antioxidant Response Element (ARE) and the SV40 promoter sequence upstream of a firefly luciferase reporter gene.
Briefly, AREc32 cells were grown in Opti-MEM (GIBCO, Carlsbad, Calif.) supplemented with 4% fetal bovine serum (FBS, GIBCO) and 1% Antibiotic-Antimycotic (GIBCO) at 37° C. and in a 10% CO 2-supplemented air atmosphere. The cells were seeded at 1% to 5% of confluent cell density in T75 tissue culture flasks and cultivated until they approached confluence. The medium was aspirated off and the adherent cells trypsinized with 1 ml of 1× Trypsin-EDTA solution (GIBCO) for 10 min. Ten milliliters of medium was added to the flask and the cells transferred to a 50 ml centrifuge tube and centrifuged at 1000 rpm for 5 min at room temperature. Cells were washed once with 10 ml of medium, then resuspended in 10 ml of medium. Cells were counted using a hemocytometer and diluted to a concentration of 50,000 cells/ml. Four hundred microliters of this cell suspension was seeded into each well of a 24-well plate (i.e. 20,000 cells/well). Seeded plates were then returned to the incubator for 24 h.
After 18-24 h the cells were reattached and growing, and ready for treatment with samples with putative Nrf2 activating activity. […] Vehicles used were aqueous or organic solvents such as ethanol or DMSO, and appropriate vehicle controls were included. The cells were then returned to the incubator for 18 h. All operations up to this point must be conducted under sterile conditions.
After 24 h the cells were checked under the microscope for any abnormalities or detachment. The medium was aspirated and the cells were washed with phosphate buffered saline, pH 7.4 (100 μl/well). Following aspiration of the wash solution, the cells were lysed by application of 0.1 M potassium phosphate buffer, pH 7.8, containing 1% Triton X-100, 2 mM dithiothreitol, 2 mM EDTA, 10% glycerol and 3.5 mM sodium pyrophosphate (100 μl/well). The plate was incubated at 4° C. for 20 min. Lysate (20 μl from each well in a new 12×75 mm glass test tube) was assayed for luciferase activity using a Monolight 3010 autoinject luminometer (Analytical Luminescence Laboratory, Ann Arbor, Mich.), automatically injecting 50 of Luciferase Assay Buffer after background measurement. Luciferase Assay Buffer was prepared by mixing 9 ml of Solution A (15 mM Tricine, pH 7.8, containing 1.5 mM ATP, 7.5 mM MgSO 4, and 5 mM dithiothreitol) with 1 ml of Solution B 10 mM D-luciferin). After a 4 delay following injection, luminescence was measured for 10 s. Relative Light Units (RLU) were recorded for the contents of each well. Fold Induction (FI) of luciferase activity was calculated by dividing the RLU obtained for the test well by the average RLU obtained for control wells (which received no putative Nrf2 activator). Each assay or control was performed in duplicate. Parameters noted were the concentration of test substance providing maximal fold induction of luciferase (Cmax), and the maximal fold induction observed (FImax).
The AREc32 cells were prepared as in Example 7. After 18-24 h the cells were reattached and growing, and ready for treatment with samples with putative Nrf2 activating activity. […]

Data set [7] is described as follows: Blood pressure of human subjects. The settings on record: Subject #2, ATENOLOL 25 mg/day alone.
Method: The approximate daily dosage of each of the components of the herb-containing composition was as follows: B. monnieri extract (200 mg), Milk Thistle extract 70-80% (300 mg), Ashwagandha powder (200 mg), Turmeric extract (95%) (100 mg), Gotu kola powder (200 mg), Aloe vera powder (200 mg), Green tea (98% Polyphenols 45% EGCG) (100 mg), and Ginko biloba leaf extract (200 mg).
The approximate daily dosage of each of the components of the herb-containing composition was as follows: B. monnieri extract (134 mg), Milk Thistle extract 70-80% (200 mg), Ashwagandha powder (134 mg), Turmeric extract (95%) (67 mg), Gotu kola powder (134 mg), Aloe vera powder (134 mg), Green tea (98% Polyphenols, 45% EGCG) (67 mg), and Ginko biloba leaf extract (134 mg).
The conditions of data set [8]: pH of 1.0; cited from earlier work.
The mark [9] stands for this setting: SK-N-MC, 250 nM Akt inhibitor IV, 30 μM LY294002, 10 μM U0126, 20 μM SP600125, 30 min, then 20 μg/ml Protandim® 24 h.
Where [10] appears, read: AREc32 cells, biphasic induction.
Where [11] appears, read: SK-N-MC, then 20 μg/ml Protandim® 24 h.

SMILES strings stand for the structures. Like-named read-outs stand apart in the source and are kept apart here.

As for `CC[n+]1c(/C=C/N(C)c2ccccc2)n(-c2ccccc2)c2ccc(-c3nc4ccccc4s3)cc21` [Akt inhibitor IV, 5-(2-benzothiazolyl)-3-ethyl-2-[2-(methylphenylamino)ethenyl]-1-phenyl-1H-benzimidazolium iodide], in data set [1] (setting [9]), the “effect of inhibitor on Protandim®-induced increase in HO-1 protein levels” value is on record as “significant (p<0.001) decrease”.
For `COc1cc(/C=C/C(=O)CC(=O)/C=C/c2ccc(O)c(OC)c2)ccc1O` [Curcumin], the “increase of HO-1 protein level” value in data set [2] and in data set [3] was 6 fold throughout. In addition, the “HO-1 promoter induction by individual ingredient” value in data set [4] was 300%; in data set [5], 36%.
As to `CC(C)(C)c1cc(O)ccc1O` [tert-butyl-hydroquinone], the “increase of luciferase activity” value in data set [6] (AREc32 cells, 50 μmol/L) was “up to 50 fold”.
Turning to `C[S+]([O-])CCCCN=C=S` (stereo not shown) [sulforaphane], the “maximal fold induction observed (FImax)” value in data set [6] (human, 18 h) is listed as 21 fold.
Turning to `Oc1c2ccccc2c2c3c(cccc13)N=N2` [SP600125], the “effect of inhibitor on Protandim®-induced increase in HO-1 protein levels” value in data set [1] (setting [9]) is on record as “No significant effect”.
On to `CC1=C(CO)C(=O)O[C@@H]([C@@H](C)[C@H]2CC[C@H]3[C@@H]4C[C@H]5O[C@]56[C@@H](O)C=CC(=O)[C@]6(C)[C@H]4CC[C@]23C)C1` [Withaferin A], for which the “concentration providing maximal fold induction of luciferase (Cmax)” value in data set [6] (AREc32 cells, 18 h) came out at 2100 nM; in data set [6] (AREc32 cells, 18 h, ethanolic extract) it was 1000 ng/mL.
With `N#CC(=C(/N)Sc1ccccc1N)/C(C#N)=C(\N)Sc1ccccc1N` [U0126], the “effect of inhibitor on Protandim®-induced increase in HO-1 protein levels” value in data set [1] is listed as “No significant effect”.
`COC(=O)[C@]12CCC(C)(C)C[C@H]1[C@H]1C(=O)C=C3[C@@]4(C)C=C(C#N)C(=O)C(C)(C)[C@@H]4CC[C@@]3(C)[C@]1(C)CC2` [bardoxolone methyl]: in data set [6], the “maximal fold induction observed (FImax)” value was determined as 67 fold. In data set [6] (setting [10]), the “lower end of concentration range producing near maximal FI” value is “less than 40 nM” and the upper end of concentration range producing near maximal FI was determined as 0.4 µM.
Take `C[S+]([O-])c1ccc(-c2nc(-c3ccncc3)c(-c3ccc(F)cc3)[nH]2)cc1` (stereo not shown) [SB203580]: the “decrease of Protandim®-mediated increase in HO-1 expression in presence of inhibitor” value in data set [1] (setting [11]) amounted to 50%.
In the case of `CC(C)NCC(O)COc1ccc(CC(N)=O)cc1` (stereo not shown) [ATENOLOL], the lowest diastolic measurement in data set [7] is listed as 91.
For the compound `N[C@@H](CCC(=O)N[C@@H](CS)C(=O)NCC(=O)O)C(=O)O` [GSH, L-γ-glutamyl-L-cysteinyl-glycine], in data set [8], the “rate constant K2 against the hydroxyl radical” value was 8.8×10^9.
Regarding `CC(=O)N[C@@H](CS)C(=O)O` [NAC, N-Acetyl Cysteine], the rate constant K2 against the hydroxyl radical in data set [8] was 1.36e+10 M⁻¹ s⁻¹.
Regarding `CC(=O)c1c(O)c(C)c(O)c(Cc2c(O)c3c(c(C(=O)/C=C/c4ccccc4)c2O)OC(C)(C)C=C3)c1O` [rottlerin], the “decrease of Protandim®-mediated increase in HO-1 expression in presence of inhibitor” value in data set [1] (setting [11]) was 50%.
